# According to patent publication US20250221966A1, “RXFP1 AGONISTS” (BRISTOL-MYERS SQUIBB COMPANY, priority 2021, published 2025):
# Where two headings read alike, the source gives them in different places.
# Target: T1, human RXFP1 (Homo sapiens, UniProt Q9HBX9)
# T1 construct: expressed in transfected cells
# T1 sequence (Q9HBX9 1-757): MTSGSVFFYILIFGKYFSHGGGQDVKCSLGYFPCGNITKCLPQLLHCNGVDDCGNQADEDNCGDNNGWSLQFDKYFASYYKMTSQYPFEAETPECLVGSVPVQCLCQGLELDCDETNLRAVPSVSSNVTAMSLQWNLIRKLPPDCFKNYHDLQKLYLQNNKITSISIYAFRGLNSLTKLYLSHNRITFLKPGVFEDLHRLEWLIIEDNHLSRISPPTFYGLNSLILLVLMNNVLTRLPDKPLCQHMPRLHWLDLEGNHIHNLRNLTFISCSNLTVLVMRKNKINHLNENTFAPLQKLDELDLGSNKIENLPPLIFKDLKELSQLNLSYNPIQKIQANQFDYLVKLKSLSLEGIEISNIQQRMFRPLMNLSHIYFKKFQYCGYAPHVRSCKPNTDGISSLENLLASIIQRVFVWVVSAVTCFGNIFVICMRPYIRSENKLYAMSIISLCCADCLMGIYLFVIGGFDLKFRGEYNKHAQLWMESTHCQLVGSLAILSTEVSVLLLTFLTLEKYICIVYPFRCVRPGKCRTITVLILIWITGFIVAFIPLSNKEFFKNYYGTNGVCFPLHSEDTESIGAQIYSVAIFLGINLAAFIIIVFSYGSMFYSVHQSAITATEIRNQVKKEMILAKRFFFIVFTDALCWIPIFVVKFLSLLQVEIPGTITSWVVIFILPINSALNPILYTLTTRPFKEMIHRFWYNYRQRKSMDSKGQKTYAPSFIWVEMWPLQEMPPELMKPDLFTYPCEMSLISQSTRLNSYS
# Assay: RXFP1 cAMP assay (hRXFP1 HEK293 cAMP assay, HTRF)
# Format: cell-based
# Procedure, shortened: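 HEK293 cells stably expressing human RXFP1 (1500 cells/well) in HBSS/20 mM HEPES/0.05% BSA/0.5 mM IBMX. Compounds were tested at 0.010 nM–50 μM final (2% DMSO) for 30 min at room temperature. cAMP was measured by HTRF and values derived by 4-parameter logistic fit.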
# [1] = HEK293 cells stably expressing human RXFP1, 30 min at room temperature, read-out: cAMP hRXFP1 HEK293 Assay EC50
Compound,EC50 [1] [nM],"EC50 (cAMP hRXFP1 HEK293 Assay EC50, HEK293 cells stably expressing human RXFP1, 30 min at room temperature) [nM]"
COc1ccc(C2=NOC3COCC23)cc1C(=O)N[C@H]1[C@@H](C(=O)NC2(C)CCCC2)[C@H]2CC[C@@H]1/C2=C\C1CC1 (stereo partly drawn) [compound 494],10.4,–
COc1ccc(C2=NOC3COCC23)cc1C(=O)N[C@H]1[C@@H](C(=O)NCc2c(C)cccc2C)[C@H]2CC[C@@H]1/C2=C\C1CC1 (stereo partly drawn) [compound 540],29.4,–
COc1cc(F)c(F)cc1C(=O)N[C@@H]1C2CCC(/C2=C/c2ccccc2)[C@@H]1C(=O)Nc1cccc(S(=O)(=O)C(F)(F)F)c1 (stereo partly drawn) [Example 127],49,–
COc1ccc(C2=CCNCC2)cc1C(=O)N[C@@H]1C2CCC(C2=C(C)C)[C@@H]1C(=O)Nc1ccc(F)c(C(F)(F)F)c1 (stereo partly drawn) [compound 148],910,–
COc1ccc(C2=NOC3CC(CF)CC23)cc1C(=O)N[C@H]1[C@@H](C(=O)Nc2ccc(F)c(C(F)(F)F)c2)[C@H]2CC[C@@H]1/C2=C\C1CC1 (stereo partly drawn) [compound 866],4.8,–
COc1ccc(-c2cc(OC(F)(F)F)ccc2F)cc1C(=O)N[C@@H]1C2CCC(/C2=C/C2CC2)[C@@H]1C(=O)Nc1ccc(F)c(C(F)(F)F)c1 (stereo partly drawn) [compound 285],7,–
"COc1ccc(C2CCOC2)cc1C(=O)N[C@H]1[C@@H](C(=O)Nc2ccc(F)c(C(F)(F)F)c2)[C@H]2CC[C@@H]1/C2=C\C(F)(F)F (stereo partly drawn) [Example 360, (1R,2S,3R,4R,Z)—N-(4-fluoro-3-(trifluoromethyl)phenyl)-3-(2-methoxy-5-(tetrahydrofuran-3-yl)benzamido)-7-(2,2,2-trifluoroethylidene)bicyclo[2.2.1]heptane-2-carboxamide]",1940,–
COc1ccc(-c2ccc(C(=O)O)cc2)cc1C(=O)N[C@H]1[C@@H](C(=O)Nc2ccc(F)c(C(F)(F)F)c2)[C@H]2CC[C@@H]1/C2=C/c1ccccc1 [compound 94],400,–
COc1ccc(-n2cc(C(NC(=O)C3CCOCC3)C(=O)O)cn2)cc1C(=O)N[C@@H]1C2CCC(/C2=C/C(F)(F)F)[C@@H]1C(=O)Nc1ccc(F)c(C(F)(F)F)c1 (stereo partly drawn) [compound 347],62,–
COCCN1CCCC1c1ccc(OC)c(C(=O)N[C@@H]2C3CCC(C3=CC3CC3)[C@@H]2C(=O)Nc2ccc(F)c(C(F)(F)F)c2)c1 (stereo partly drawn) [compound 689],684,–
COc1ccc(Cl)cc1C(=O)N[C@@H]1C2CCC(C2=C(C)C)[C@@H]1C(=O)Nc1ccc(F)c(C(F)(F)F)c1 (stereo partly drawn) [compound 109],390,–
COc1ccc(C2=NOC(CC(=O)O)C2)cc1C(=O)N[C@@H]1C2CCC(/C2=C/C(F)(F)F)[C@@H]1C(=O)Nc1ccc(F)c(C(F)(F)F)c1 (stereo partly drawn) [compound 396],320,–
COC(=O)C(NC(C)=O)c1ccc(F)c(-c2ccc(OC)c(C(=O)N[C@@H]3C4CCC(/C4=C/C4CC4)[C@@H]3C(=O)Nc3ccc(F)c(C(F)(F)F)c3)c2)c1 (stereo partly drawn) [Example 171],5,–
COc1ccc(C2=NOC3CCCC23)cc1C(=O)N[C@@H]1C2CCC(/C2=C/C2CC2)[C@@H]1C(=O)Nc1ccc(F)c(C(F)(F)F)c1 (stereo partly drawn) [compound 440],25,–
COc1ccc(C2=NOC(CC(=O)O)C2)cc1C(=O)N[C@@H]1C2CCC(/C2=C/C2CCC2)[C@@H]1C(=O)Nc1ccc(F)c(C(F)(F)F)c1 (stereo partly drawn) [compound 393],73,–
COC(=O)N1CC=C(c2ccc(OC)c(C(=O)N[C@@H]3C4CCC(C4=C(C)C)[C@@H]3C(=O)Nc3ccc(F)c(C(F)(F)F)c3)c2)CC1 (stereo partly drawn) [compound 143],2800,–
"COc1ccc(-c2ccc(N3CCOCC3)c(C(=O)OC(C)(C)C)c2)cc1C(=O)N[C@H]1[C@@H](C(=O)Nc2ccc(F)c(C(F)(F)F)c2)[C@H]2CC[C@@H]1/C2=C\C1CC1 [Example 251, tert-butyl 3′-(((1R,2R,3S,4R,Z)-7-(cyclopropylmethylene)-3-((4-fluoro-3-(trifluoromethyl)phenyl)carbamoyl)bicyclo[2.2.1]heptan-2-yl)carbamoyl)-4′-methoxy-4-morpholino-[1,1′-biphenyl]-3-carboxylate]",36,–
COc1ccc(-c2cc(C(=O)O)ccc2F)cc1C(=O)N[C@H]1[C@@H](C(=O)Nc2ccc(F)c(C(F)(F)F)c2)[C@H]2CC[C@@H]1/C2=C/c1ccccc1 [compound 91],–,360
COc1ccc(-c2c(C)noc2C)cc1C(=O)N[C@H]1[C@@H](C(=O)Nc2ccc(F)c(C(F)(F)F)c2)[C@H]2CC[C@@H]1C2=C(C)C [compound 104],1600,–
"COc1ccc(C2=NOC(C(=O)O)(C(C)(C)C)C2)cc1C(=O)N[C@H]1[C@@H](C(=O)Nc2ccc(F)c(C(F)(F)F)c2)[C@H]2CC[C@@H]1/C2=C\C(F)(F)F (stereo partly drawn) [Example 397, 5-(tert-butyl)-3-(3-(((1R,2R,3S,4R,Z)-3-((4-fluoro-3-(trifluoromethyl)phenyl)carbamoyl)-7-(2,2,2-trifluoroethylidene)bicyclo[2.2.1]heptan-2-yl)carbamoyl)-4-methoxyphenyl)-4,5-dihydroisoxazole-5-carboxylic acid]",912,–
"COc1cc(C)c(C2=NOC3COCC23)cc1C(=O)N[C@H]1[C@@H](C(=O)Nc2ccc(F)c(C(F)(F)F)c2)[C@H]2CC[C@@H]1/C2=C\C1CC1 (single isomer, unassigned) [compound 686]",653,–
COc1cc(F)c(F)cc1C(=O)N[C@@H]1C2CCC([C@@H]1C(=O)Nc1ccc(F)c(C(F)(F)F)c1)C21OCCO1 (stereo partly drawn) [Example 147],1800,–

# Continued, values first:
EC50 [1] [nM],"EC50 (cAMP hRXFP1 HEK293 Assay EC50, HEK293 cells stably expressing human RXFP1, 30 min at room temperature) [nM]",Compound
4,–,COc1ccc(-c2cc(C(C)O)ccc2F)cc1C(=O)N[C@@H]1C2CCC(/C2=C/C2CC2)[C@@H]1C(=O)Nc1ccc(F)c(C(F)(F)F)c1 (stereo partly drawn) [compound 248]
0.9,–,COc1ccc(-c2cc(C3=NOC(C(=O)O)C3)ccc2F)cc1C(=O)N[C@H]1[C@@H](C(=O)Nc2ccc(F)c(C(F)(F)F)c2)[C@H]2CC[C@@H]1/C2=C\C1CCCC1 (stereo partly drawn) [compound 946]
1,–,COc1ccc(-c2cc(C(NC(=O)Cc3ccccc3)C(=O)O)ccc2F)cc1C(=O)N[C@@H]1C2CCC(/C2=C/C(F)(F)F)[C@@H]1C(=O)Nc1ccc(F)c(C(F)(F)F)c1 (stereo partly drawn) [compound 240]
3.2,–,CCCOc1c(F)cc(C2=NOC3CC(CO)CC23)cc1C(=O)N[C@H]1[C@@H](C(=O)Nc2ccc(F)c(C(F)(F)F)c2)[C@H]2CC[C@@H]1/C2=C\C1CC1 (stereo partly drawn) [compound 782]
1.9,–,COc1ccc(-c2cc(C(CC(F)(F)F)NC(=O)C3CCOCC3)ccc2F)cc1C(=O)N[C@H]1[C@@H](C(=O)Nc2ccc(F)c(C(F)(F)F)c2)[C@H]2CC[C@@H]1/C2=C\C1CCCC1 (stereo partly drawn) [compound 944]
0.6,–,COc1ccc(-c2cc(C(OC(=O)NC3CCC3)C(=O)O)ccc2F)cc1C(=O)N[C@H]1[C@@H](C(=O)Nc2ccc(F)c(C(F)(F)F)c2)[C@H]2CC[C@@H]1/C2=C\C1CC(F)(F)C1 (stereo partly drawn) [compound 939]
3,–,COc1ccc(-c2cc(C(NC(=O)C(F)(F)F)C(=O)O)ccc2F)cc1C(=O)N[C@@H]1C2CCC(/C2=C/C(F)(F)F)[C@@H]1C(=O)Nc1ccc(F)c(C(F)(F)F)c1 (stereo partly drawn) [compound 241]
4.7,–,COc1ccc(C2=NOC3CC(CO)CC23)cc1C(=O)N[C@H]1[C@@H](C(=O)N[C@H](C)C2(C)CC2)[C@H]2CC[C@@H]1/C2=C\c1csc(C)n1 (stereo partly drawn) [compound 742]
1,–,CNC(=O)OC(C(=O)NOC)c1ccc(F)c(-c2ccc(OC)c(C(=O)N[C@@H]3C4CCC(/C4=C/C4CC4)[C@@H]3C(=O)Nc3ccc(F)c(C(F)(F)F)c3)c2)c1 (stereo partly drawn) [compound 234]
3,–,COc1ccc(C2=NO[C@H]3C[C@H](CO)C[C@@H]23)cc1C(=O)N[C@H]1[C@@H](C(=O)Nc2ccc(F)c(C(F)(F)F)c2)[C@H]2CC[C@@H]1/C2=C\CC(O)C(F)(F)F (stereo partly drawn) [compound 826]
3,–,COc1ccc(C2=NOC3COCC23)cc1C(=O)N[C@H]1[C@@H](C(=O)Nc2cc(C(F)(F)F)c(F)cc2F)[C@H]2CC[C@@H]1/C2=C\C1CC1 (stereo partly drawn) [compound 767]
4.2,–,O=C(N[C@H]1[C@@H](C(=O)Nc2ccc(F)c(C(F)(F)F)c2)[C@H]2CC[C@@H]1/C2=C\C1CC1)c1cc(C2=NOC3CC(CO)CC23)ccc1OCCCF (stereo partly drawn) [compound 787]
1.9,–,COc1ccc(C2=NOC3CC(CO)CC23)cc1C(=O)N[C@@H]1C2CCC(/C2=C/C2CC2)[C@@H]1C(=O)Nc1ccc(F)c(OC(F)(F)F)c1 (stereo partly drawn) [compound 972]
2.5,–,COc1ccc(C2=NO[C@@H]3C[C@H](C(F)(F)F)CN23)cc1C(=O)N[C@H]1[C@@H](C(=O)Nc2ccc(F)c(C(F)(F)F)c2)[C@H]2CC[C@@H]1/C2=C\C1CC1 [compound 847]
3.3,–,COc1c(F)cc(-c2cnc3n2CC(O)CC3)cc1C(=O)N[C@H]1[C@@H](C(=O)Nc2ccc(F)c(C(F)(F)F)c2)[C@H]2CC[C@@H]1/C2=C\C1CC1 (stereo partly drawn) [compound 753]
2.7,–,COc1ccc(C2=NOC3CC(CO)CC23)cc1C(=O)N[C@H]1[C@@H](C(=O)N[C@H](C)C2(C)CC2)[C@H]2CC[C@@H]1/C2=C\C1CC1 (stereo partly drawn) [compound 766]
4,–,CCCCC1[C@H]2CC[C@@H]1[C@H](C(=O)Nc1ccc(F)c(C(F)(F)F)c1)[C@@H]2NC(=O)c1cc(C2=NOC3CC(CO)CC23)ccc1OC (stereo partly drawn) [Example 467]
